Test results published in ChEMBL document CHEMBL5465560, “Selectivity Literature for EUbOPEN Chemogenomic Library” (2024).
One block for each molecule: values may come before it.

Columns and labels:
[1] = molecular target: Receptor tyrosine-protein kinase erbB-2 (Homo sapiens, UniProt P04626); test: Selectivity interaction (Rxn Biology Kinase assay) EUB0001632a ERBB2; settings: at 10 µM
[2] = molecular target: T1, Serine/threonine-protein kinase TBK1 (Homo sapiens) (UniProt Q9UHD2); test: Selectivity interaction (Upstate Kinase Profiler service (Millipore)) EUB0000056c TBK1; settings: at 1 µM
T1 sequence (whole entry): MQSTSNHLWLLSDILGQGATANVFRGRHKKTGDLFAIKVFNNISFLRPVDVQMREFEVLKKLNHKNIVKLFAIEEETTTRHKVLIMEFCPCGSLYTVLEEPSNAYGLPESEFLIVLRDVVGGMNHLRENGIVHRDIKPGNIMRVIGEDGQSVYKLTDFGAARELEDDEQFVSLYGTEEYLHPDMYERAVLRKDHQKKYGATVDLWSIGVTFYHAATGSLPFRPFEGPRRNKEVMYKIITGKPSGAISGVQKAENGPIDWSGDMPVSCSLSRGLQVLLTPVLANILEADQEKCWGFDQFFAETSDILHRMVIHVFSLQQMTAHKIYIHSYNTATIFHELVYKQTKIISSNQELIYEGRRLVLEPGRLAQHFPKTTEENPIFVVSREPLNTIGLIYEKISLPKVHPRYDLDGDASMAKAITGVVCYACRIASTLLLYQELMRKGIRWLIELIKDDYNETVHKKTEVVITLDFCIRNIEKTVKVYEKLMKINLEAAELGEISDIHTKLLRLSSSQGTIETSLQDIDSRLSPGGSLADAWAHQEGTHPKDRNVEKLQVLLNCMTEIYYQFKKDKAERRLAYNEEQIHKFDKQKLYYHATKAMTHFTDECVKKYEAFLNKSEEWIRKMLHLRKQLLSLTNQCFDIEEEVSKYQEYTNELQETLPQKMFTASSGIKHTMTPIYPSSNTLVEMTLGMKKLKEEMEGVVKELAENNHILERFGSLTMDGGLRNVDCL

[3] = molecular target: Serine/threonine-protein kinase PLK3 (Homo sapiens, UniProt Q9H4B4); settings: at 10 µM
[4] = molecular target: Mitogen-activated protein kinase 14 (Homo sapiens, UniProt Q16539); settings: at 10 µM
[5] = molecular target: Mitogen-activated protein kinase 9 (Homo sapiens, UniProt P45984); test: Selectivity interaction (ActivX KiNativ screen (kinase selectivity in THP-1 cell lysates)) EUB0000639a MAPK9; assay type: subcellular; settings: lysate
[6] = molecular target: Death-associated protein kinase 3 (Homo sapiens) (UniProt O43293); test: Selectivity interaction (ProQinase) EUB0000171b DAPK3
[7] = molecular target: Wee1-like protein kinase (Homo sapiens) (UniProt P30291); test: Selectivity interaction (KinomeScan (DiscoverX)) EUB0000595a WEE1; settings: at 10 µM
[8] = molecular target: TGF-beta receptor type-2 (Homo sapiens) (UniProt P37173); test: Selectivity interaction (KinomeScan (DiscoverX)) EUB0000045b TGFBR2
[9] = molecular target: T2, Histone-lysine N-methyltransferase EHMT1 (Homo sapiens) (UniProt Q9H9B1); settings: at 10 µM
T2 sequence (whole entry): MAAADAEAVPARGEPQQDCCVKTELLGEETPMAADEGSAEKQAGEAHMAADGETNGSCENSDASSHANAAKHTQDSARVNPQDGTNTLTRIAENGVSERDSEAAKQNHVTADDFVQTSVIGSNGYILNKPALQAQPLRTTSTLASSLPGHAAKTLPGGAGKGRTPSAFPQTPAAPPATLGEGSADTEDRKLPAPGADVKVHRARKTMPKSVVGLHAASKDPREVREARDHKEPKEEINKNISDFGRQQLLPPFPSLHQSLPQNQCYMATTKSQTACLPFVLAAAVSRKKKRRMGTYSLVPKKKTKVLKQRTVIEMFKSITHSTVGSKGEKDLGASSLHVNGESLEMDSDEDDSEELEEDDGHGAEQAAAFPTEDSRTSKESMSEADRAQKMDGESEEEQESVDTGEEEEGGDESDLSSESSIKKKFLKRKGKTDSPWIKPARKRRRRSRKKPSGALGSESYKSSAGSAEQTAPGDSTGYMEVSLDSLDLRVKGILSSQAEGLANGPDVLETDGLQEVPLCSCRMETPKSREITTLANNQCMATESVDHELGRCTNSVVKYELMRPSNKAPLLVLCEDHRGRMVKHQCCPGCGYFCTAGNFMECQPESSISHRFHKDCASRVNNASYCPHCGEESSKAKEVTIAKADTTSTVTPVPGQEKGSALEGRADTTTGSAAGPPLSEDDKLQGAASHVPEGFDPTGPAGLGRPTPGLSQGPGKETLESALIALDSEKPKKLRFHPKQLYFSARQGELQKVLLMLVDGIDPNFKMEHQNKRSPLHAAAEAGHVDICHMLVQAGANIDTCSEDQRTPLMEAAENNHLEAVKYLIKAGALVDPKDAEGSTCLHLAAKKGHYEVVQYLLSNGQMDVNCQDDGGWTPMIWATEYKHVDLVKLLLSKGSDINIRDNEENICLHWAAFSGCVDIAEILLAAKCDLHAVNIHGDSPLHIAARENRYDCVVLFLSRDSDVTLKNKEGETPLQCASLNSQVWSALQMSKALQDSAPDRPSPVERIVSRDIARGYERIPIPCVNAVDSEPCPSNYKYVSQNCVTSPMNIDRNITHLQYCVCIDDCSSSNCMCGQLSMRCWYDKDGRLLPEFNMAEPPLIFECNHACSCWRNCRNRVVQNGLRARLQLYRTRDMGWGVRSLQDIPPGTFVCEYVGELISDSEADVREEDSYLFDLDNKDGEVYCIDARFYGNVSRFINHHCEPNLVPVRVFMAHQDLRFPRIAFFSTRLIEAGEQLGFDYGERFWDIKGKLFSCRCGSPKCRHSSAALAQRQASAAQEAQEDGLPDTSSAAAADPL

[10] = molecular target: Serine/threonine-protein kinase PAK 3 (Homo sapiens) (UniProt O75914); test: Selectivity interaction (KinomeScan (DiscoverX)) EUB0001619a PAK3; settings: at 1 µM
Sequence of Serine/threonine-protein kinase PAK 3 (Homo sapiens) (O75914 whole entry, looked up): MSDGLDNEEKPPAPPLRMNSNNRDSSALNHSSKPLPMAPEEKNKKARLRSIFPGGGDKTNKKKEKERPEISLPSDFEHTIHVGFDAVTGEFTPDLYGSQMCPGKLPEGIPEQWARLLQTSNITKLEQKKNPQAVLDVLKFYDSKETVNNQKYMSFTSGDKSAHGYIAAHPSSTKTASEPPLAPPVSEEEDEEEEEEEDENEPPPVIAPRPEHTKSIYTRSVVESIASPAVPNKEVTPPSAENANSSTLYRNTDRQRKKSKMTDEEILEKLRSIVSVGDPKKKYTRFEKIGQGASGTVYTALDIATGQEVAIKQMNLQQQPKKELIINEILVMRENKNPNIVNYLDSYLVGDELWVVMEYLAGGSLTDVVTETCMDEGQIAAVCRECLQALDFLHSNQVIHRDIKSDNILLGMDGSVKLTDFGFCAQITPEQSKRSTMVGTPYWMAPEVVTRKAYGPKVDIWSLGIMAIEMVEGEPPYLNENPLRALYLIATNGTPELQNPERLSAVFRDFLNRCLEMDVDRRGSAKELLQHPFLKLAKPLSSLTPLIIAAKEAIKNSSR

Sequence of Mitogen-activated protein kinase 9 (P45984 whole entry, looked up): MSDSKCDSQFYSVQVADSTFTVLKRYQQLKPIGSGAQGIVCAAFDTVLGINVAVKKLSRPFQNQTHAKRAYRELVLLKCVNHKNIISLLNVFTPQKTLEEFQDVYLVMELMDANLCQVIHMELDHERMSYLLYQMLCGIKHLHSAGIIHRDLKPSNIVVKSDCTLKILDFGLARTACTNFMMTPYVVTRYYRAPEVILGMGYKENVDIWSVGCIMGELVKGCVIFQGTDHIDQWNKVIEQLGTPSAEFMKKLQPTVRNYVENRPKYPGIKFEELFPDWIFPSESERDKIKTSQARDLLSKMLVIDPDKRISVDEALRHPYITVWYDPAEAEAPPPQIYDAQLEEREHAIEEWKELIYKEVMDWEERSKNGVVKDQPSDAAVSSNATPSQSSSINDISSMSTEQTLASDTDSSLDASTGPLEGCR
Sequence of TGF-beta receptor type-2 (Homo sapiens) (P37173 whole entry): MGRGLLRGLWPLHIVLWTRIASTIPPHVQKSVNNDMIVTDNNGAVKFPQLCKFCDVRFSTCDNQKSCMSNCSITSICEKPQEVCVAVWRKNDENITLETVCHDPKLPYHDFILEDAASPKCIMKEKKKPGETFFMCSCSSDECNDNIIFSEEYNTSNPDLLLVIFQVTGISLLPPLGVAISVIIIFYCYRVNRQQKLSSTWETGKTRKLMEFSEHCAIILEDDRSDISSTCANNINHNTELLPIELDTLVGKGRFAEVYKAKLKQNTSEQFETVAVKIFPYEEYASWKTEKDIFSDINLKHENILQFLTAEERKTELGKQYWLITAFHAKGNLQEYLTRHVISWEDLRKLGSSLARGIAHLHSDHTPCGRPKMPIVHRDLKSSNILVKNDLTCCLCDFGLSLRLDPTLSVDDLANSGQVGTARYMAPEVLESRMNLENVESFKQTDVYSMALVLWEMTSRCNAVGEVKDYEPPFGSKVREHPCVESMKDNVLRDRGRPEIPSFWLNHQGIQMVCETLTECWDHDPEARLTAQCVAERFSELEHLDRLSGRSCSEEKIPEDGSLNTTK
Sequence of Death-associated protein kinase 3 (Homo sapiens) (O43293 whole entry, looked up): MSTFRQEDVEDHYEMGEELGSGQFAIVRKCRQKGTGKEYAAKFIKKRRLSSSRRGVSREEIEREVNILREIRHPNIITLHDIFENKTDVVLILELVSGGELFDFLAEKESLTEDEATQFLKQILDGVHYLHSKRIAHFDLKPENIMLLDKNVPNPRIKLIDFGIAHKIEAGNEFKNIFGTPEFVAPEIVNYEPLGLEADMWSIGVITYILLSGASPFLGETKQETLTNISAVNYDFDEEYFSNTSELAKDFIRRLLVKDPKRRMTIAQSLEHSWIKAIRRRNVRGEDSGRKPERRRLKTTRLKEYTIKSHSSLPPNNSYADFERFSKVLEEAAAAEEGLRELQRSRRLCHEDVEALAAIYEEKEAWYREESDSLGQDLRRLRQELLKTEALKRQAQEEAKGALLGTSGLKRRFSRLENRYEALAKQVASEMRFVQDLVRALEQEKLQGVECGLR
Sequence of Wee1-like protein kinase (Homo sapiens) (P30291 whole entry, looked up): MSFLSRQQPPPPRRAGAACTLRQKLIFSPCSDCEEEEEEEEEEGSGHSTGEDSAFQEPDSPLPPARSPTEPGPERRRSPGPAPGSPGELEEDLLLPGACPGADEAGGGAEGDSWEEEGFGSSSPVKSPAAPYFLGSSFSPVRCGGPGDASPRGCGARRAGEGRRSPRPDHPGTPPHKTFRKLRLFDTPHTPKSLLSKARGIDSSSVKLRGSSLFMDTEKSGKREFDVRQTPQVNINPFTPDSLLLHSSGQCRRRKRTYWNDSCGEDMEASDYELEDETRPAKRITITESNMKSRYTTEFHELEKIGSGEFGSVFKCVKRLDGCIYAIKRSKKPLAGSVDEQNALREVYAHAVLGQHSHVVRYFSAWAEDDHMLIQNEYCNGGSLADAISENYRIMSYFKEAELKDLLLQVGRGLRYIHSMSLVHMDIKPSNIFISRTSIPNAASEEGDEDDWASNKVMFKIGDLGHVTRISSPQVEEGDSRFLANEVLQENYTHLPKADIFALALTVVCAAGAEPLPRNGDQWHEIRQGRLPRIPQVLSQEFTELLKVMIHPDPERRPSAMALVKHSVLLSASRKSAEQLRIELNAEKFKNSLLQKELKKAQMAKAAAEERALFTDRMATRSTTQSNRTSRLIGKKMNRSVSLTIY
Sequence of Mitogen-activated protein kinase 14 (Q16539 whole entry): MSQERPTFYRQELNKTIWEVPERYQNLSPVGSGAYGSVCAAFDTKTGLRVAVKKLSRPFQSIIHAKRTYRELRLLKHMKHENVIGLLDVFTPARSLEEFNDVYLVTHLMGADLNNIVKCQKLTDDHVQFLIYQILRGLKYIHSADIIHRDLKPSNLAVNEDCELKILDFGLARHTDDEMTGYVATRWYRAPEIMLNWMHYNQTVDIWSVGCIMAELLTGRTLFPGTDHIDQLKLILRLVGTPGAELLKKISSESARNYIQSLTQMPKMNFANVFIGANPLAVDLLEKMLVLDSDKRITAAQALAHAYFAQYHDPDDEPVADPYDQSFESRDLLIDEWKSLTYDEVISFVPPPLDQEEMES
Sequence of Serine/threonine-protein kinase PLK3 (Q9H4B4 whole entry, looked up): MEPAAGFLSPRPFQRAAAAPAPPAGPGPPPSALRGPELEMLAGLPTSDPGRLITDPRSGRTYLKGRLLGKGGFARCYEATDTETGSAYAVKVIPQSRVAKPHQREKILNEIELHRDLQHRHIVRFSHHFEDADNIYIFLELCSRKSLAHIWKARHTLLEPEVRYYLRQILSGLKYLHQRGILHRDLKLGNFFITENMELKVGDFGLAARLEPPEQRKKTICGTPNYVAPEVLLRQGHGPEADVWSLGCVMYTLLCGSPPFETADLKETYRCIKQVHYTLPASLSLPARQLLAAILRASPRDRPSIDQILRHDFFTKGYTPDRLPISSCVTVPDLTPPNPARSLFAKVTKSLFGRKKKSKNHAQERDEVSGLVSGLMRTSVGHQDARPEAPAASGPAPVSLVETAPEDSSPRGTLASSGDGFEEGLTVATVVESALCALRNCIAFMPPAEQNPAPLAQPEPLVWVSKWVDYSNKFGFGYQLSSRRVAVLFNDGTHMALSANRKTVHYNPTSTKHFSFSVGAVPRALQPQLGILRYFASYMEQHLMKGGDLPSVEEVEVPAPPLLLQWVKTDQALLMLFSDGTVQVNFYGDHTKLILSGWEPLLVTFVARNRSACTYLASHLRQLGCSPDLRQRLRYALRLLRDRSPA
Sequence of Receptor tyrosine-protein kinase erbB-2 (P04626 whole entry): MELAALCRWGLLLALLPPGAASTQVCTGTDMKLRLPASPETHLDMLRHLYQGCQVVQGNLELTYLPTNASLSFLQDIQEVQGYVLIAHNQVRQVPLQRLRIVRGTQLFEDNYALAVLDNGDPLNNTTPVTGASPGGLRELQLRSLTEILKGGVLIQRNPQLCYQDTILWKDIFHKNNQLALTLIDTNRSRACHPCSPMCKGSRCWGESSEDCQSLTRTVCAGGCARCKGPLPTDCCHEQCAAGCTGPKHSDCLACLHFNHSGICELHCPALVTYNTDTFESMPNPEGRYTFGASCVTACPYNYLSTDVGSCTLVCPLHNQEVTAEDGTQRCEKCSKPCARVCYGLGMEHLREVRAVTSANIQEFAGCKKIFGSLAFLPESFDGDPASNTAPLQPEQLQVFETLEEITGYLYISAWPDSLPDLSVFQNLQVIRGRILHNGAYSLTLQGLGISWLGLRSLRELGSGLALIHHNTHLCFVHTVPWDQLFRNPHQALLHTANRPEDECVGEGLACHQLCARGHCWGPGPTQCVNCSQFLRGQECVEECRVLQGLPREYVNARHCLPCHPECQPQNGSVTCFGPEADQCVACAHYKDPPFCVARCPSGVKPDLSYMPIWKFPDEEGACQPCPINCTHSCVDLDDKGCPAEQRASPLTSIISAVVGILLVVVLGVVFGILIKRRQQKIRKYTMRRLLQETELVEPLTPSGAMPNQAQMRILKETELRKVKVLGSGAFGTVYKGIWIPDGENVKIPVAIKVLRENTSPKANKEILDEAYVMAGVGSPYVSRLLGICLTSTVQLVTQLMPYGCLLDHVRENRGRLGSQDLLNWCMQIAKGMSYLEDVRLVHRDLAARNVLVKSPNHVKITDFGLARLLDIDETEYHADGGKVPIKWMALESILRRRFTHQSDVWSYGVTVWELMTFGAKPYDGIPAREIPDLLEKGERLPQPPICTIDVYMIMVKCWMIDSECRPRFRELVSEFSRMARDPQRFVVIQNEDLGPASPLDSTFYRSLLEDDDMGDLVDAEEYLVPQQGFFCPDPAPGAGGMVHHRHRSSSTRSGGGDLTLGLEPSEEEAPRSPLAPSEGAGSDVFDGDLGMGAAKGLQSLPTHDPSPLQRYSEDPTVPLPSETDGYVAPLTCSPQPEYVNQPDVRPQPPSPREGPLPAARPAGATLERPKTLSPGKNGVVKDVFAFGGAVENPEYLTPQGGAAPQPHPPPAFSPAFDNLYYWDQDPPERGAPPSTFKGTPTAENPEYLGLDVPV

Compound: C=CC(=O)Nc1cccc(C(=O)Nc2ccc(Nc3cc(-c4[nH]c(SC)nc4C)ccn3)cc2)c1
% of control ([6]; at 1 µM): 88%
% of control ([6]; at 5 µM): 88%

Compound: COCC(=O)NC/C=C/c1ccc2ncnc(Nc3ccc(Oc4ccc(C)nc4)c(C)c3)c2c1 [CP-724714]
% of control [7]: 100%

Compound: C=CC(=O)Nc1cc(-n2c(=O)ccc3cnc4ccc(-c5ccc(NS(C)(=O)=O)cc5)cc4c32)ccc1C
% of control ([8]; at 1 µM): 100%
% of control ([8]; at 10 µM): 100%

Compound: N#Cc1cccc(-c2c[nH]c3ncnc(N4CCOCC4)c23)c1
% of control [10]: 74%

Next, values leading:

% of inhibition [1]: 2.6%
Compound: Cn1cc(-n2cnc3c(NCc4nc5cc(Cl)c(Cl)cc5[nH]4)nc(N4CCOCC4)nc32)cn1

% of inhibition [2]: 18%
Compound: Cc1ccc(-c2ccc3c(ccc4sc5c(c43)NC[C@@H](C)NC5=O)n2)cn1

% of control [3]: 100%
% of control [4]: 100%
Compound: CCN(CC)CCCCNc1ncc2cc(-c3cc(OC)cc(OC)c3)c(NC(=O)NC(C)(C)C)nc2n1

% of inhibition ([5]; at 0.01 µM): 13.3%
% of inhibition ([5]; at 0.04 µM): -1.4%
% of inhibition ([5]; at 0.2 µM): 1.6%
% of inhibition ([5]; at 1 µM): 27.7%
% of inhibition ([5]; at 5 µM): 57.5%
Compound: CC[C@@H]1[C@H](F)C(=O)N[C@@H]1COc1nccc2cc(C(N)=O)c(OC)cc12 [ZIMLOVISERTIB]

% activity [9]: > 90%
Compound: CNCCN1CCC(c2cc(CN(C)C(=O)c3cccc(Oc4ccccc4)c3)ccn2)CC1
